# Experimental data published in BindingDB's records for patent US9815850 (Denali Therapeutics Inc., 2017).
# Molecular target: T1, Receptor-interacting serine/threonine-protein kinase 1 (Homo sapiens, UniProt Q13546)
# T1 sequence (Q13546 whole entry): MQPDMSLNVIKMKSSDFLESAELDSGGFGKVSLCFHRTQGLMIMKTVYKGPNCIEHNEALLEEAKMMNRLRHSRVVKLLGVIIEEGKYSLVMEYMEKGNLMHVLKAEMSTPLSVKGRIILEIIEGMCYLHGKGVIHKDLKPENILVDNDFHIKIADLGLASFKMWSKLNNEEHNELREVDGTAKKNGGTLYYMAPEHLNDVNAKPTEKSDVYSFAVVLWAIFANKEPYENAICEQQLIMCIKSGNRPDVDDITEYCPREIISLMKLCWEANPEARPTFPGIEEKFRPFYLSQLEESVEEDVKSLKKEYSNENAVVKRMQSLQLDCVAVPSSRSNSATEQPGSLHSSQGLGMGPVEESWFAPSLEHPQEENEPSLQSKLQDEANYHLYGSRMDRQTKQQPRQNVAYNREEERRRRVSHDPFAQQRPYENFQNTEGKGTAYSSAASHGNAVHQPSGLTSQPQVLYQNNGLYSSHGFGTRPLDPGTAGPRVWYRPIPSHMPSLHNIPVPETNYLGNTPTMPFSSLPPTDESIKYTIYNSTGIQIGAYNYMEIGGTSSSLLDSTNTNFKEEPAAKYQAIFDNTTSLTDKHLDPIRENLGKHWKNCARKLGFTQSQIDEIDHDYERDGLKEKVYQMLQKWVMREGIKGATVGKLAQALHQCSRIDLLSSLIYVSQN
# Test: Fluorescent Polarization Binding (FP Binding) assay
# Text: For negative control the enzyme addition was replaced by assay buffer only.
structure (smiles),measurement,value
"O=C(N[C@H]1COc2ccccc2-n2cnnc21)c1cc(Cc2ccccc2)[nH]n1 [US9815850, Compound 70A]",IC50,in the range around 500 nM
